Assay results reported in patent US11958876B2, “Carbacyclic phosphatidic acid compound” (OTSUKA CHEMICAL CO., LTD., priority 2019, dated 2024).
Structures can show the parent of a compound that is named as a salt.

Test: Stability test of 2ccPA crystals with added 2ccPA-L or 2ccPA-P (thermo-hygrostat, HPLC purity)
Type: physicochemical
Conditions: 40° C., humidity 60%
Experimental: 2ccPA-L of Example 2 or 2ccPA-P of Comparative Example 2 was added to 2ccPA, and a stability test was performed. • Control: 2ccPA crystal • Test substances: crystals obtained by adding 2ccPA-L or 2ccPA-P at each concentration to 2ccPA, followed by crystallization with methanol and acetone. (2) Execution Conditions
In the stability test, a thermo-hygrostat (Yamato Scientific Co., Ltd., IW223) was used. The stability test was performed while maintaining a set temperature of 40° C. and a set humidity of 60%.
The sample purity was confirmed in such a manner that about 10 mg of each sample was weighed every week and diluted with 2 mL of acetonitrile/water (volume ratio: 1/1), and the diluted solution was analyzed by high-performance liquid chromatography (Shimadzu LC20AD).
The results are shown in Table 1 (Example 2) and Table 2 (Comparative Example 2). Tables 1 and 2 focus only on 2ccPA, and show the residual rate thereof with the initial content of 2ccPA as 100 mass %.

## CCCCCCCCCCCCCCCC(=O)OCC1COP(=O)(O)C1 (stereo not shown) [Example 2ccPA-P]
0.15 mass % 2ccPA-P added to 2ccPA
  Effect on purity of 2ccPA on storage (in words): the purity was reduced

## CCCCCCCC/C=C\CCCCCCCC(=O)OCC1COP(=O)(O)C1 (stereo not shown) [Example 2ccPA, sodium salt of 9-octadecenoic acid (9Z)-(2-hydroxy-2-oxo-2λ^5-1,2-oxaphosphoran-4-yl)methyl ester]
Control 2ccPA crystal, 0 mass % additive, 1 week, initial 2ccPA content as 100 mass %
  Stability test (1 week): residual rate of 2ccPA: 100%
Control 2ccPA crystal, 0 mass % additive, 2 weeks, initial 2ccPA content as 100 mass %
  Stability test (2 weeks): residual rate of 2ccPA: 94.4%

## CCCCC/C=C\C/C=C\CCCCCCCC(=O)OCC1COP(=O)(O)C1 (stereo not shown) [Example 2ccPA-L]
2ccPA-L coexisting with 2ccPA, storage 1 or 2 weeks
  Effect on purity of 2ccPA on storage (in words): hardly reduced
